Experimental data reported in patent US20230118152A1, “FORMS OF 5-({[2-AMINO-3-(4-CARBAMOYL-2,6-DIMETHYL-PHENYL)-PROPIONYL]-[1-(4-PHENYL-1H-IMIDAZOL-2-YL)-ETHYL]-AMINO}-METHYL)-2-METHOXY-BENZOIC ACID” (Allergan Holdings Unlimited Company, priority 2020, published 2023).

Test: Slurry experiments in water (physical form stability)
Assay type: physicochemical
Experimental: Form H3 may be formed by slurrying Form A in water. Form H3 may convert back to Form A with some minor amorphous contents within some time, and completely convert to amorphous phase upon further slurrying within further time.
Form H3 was prepared by slurry of Form A in water upon stirring. Form H3 converted back to Form A with some minor amorphous content within 2 days, and completely converted to amorphous phase upon slurry within 8 days. After additional 7 days (i.e. day 15 of slurry experiments), the amorphous phase converted further to Form D (tetrahydrate) with high crystallinity.

COc1ccc(CN(C(=O)C(N)Cc2c(C)cc(C(N)=O)cc2C)C(C)c2nc(-c3ccccc3)c[nH]2)cc1C(=O)O (stereo not drawn) [Form A, 5-({[2-Amino-3-(4-carbamoyl-2,6-dimethyl-phenyl)-propionyl]-[1-(4-phenyl-1H-imidazol-2-yl)-ethyl]-amino}-methyl)-2-methoxy-benzoic acid]
solid form conversion when suspended in water (suspended in water, trihydrate form (H3) and tetrahydrate (Form D)): converts to hydrated crystalline forms

COc1ccc(CN(C(=O)C(N)Cc2c(C)cc(C(N)=O)cc2C)C(C)c2nc(-c3ccccc3)c[nH]2)cc1C(=O)O (stereo not drawn) [Form H3, 5-({[2-amino-3-(4-carbamoyl-2,6-dimethyl-phenyl)-propionyl]-[1-(4-phenyl-1H-imidazol-2-yl)-ethyl]-amino}-methyl)-2-methoxy-benzoic acid]
time for complete conversion to amorphous phase (slurry in water upon stirring): ≤ 8 days
time for conversion back to Form A with some minor amorphous content (slurry in water upon stirring): ≤ 2 days
